The values that follow come from ChEMBL document CHEMBL1201862, “PubChem BioAssay data set” (2004).

As usually defined, the GI50 is the concentration at which growth is held to half of that of the control.

The structures appear in SMILES notation.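 Grown in 96-well plates, cells were treated for 48 hours with each compound at five concentrations. Insufficient inhibition: endpoint recorded as highest concentration tested. GI50 = concentration required for 50% inhibition of growth.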 Calls of active or inactive are those of the source. No stated cut-off is given here; in the data, active = GI50 up to about 1.1 µM and inactive = higher.

Some test systems named below: RXF 393; MOLT-4; HCT-15; SK-OV-3; OVCAR-5; ACHN; HL-60; HOP-62; UACC-62; OVCAR-3; SNB-75; CCRF-CEM; DLD-1; OVCAR-4; UACC-257; SNB-19; HCC 2998; NCI/ADR-RES; MDA-MB-231; BT-549.
Common to all, as to experiment: DTP human tumour cell line panel, 48 h

With `N#CC(NNC(=O)c1ccccc1O)c1ccccc1O` (centres undefined), the GI50 with RXF 393 was 12.8 µM (inactive); in the assay with MOLT-4 it was 2.23 µM (inactive); in the assay on HCT-15 it was 3.85 µM; in the assay with SK-OV-3, 9.53 µM (inactive); with OVCAR-5 it was 27.1 µM (inactive); in the assay with ACHN, 2.44 µM (inactive). The GI50 in the assay on HL-60 was 1.27 µM (inactive); in the assay on HOP-62, 8.45 µM (inactive); with UACC-62, 2.72 µM (inactive); in the assay with OVCAR-3, 2.52 µM (inactive); in the assay on SNB-75, 18.5 µM (inactive); in the assay with CCRF-CEM, 2.06 µM (inactive). The GI50 is 3.26 µM (inactive) with DLD-1, 9.64 µM (inactive) with OVCAR-4 and 4.06 µM (inactive) in the assay with UACC-257.
For `CC(C)(C)c1ccc2c(c1)S(=O)(=O)Nc1cccc(c1)NS(=O)(=O)c1cc(C(C)(C)C)ccc1OCCOCCO2`, the GI50 is 6.49 µM (inactive) with RXF 393; > 100 µM (inactive) in the assay with MOLT-4; greater than 100 µM with HCT-15; > 100 µM (inactive) with SK-OV-3; > 100 µM (inactive) in the assay on OVCAR-5; > 100 µM (inactive) in the assay on ACHN. Further, the GI50 in the assay on SNB-19, in the assay on HOP-62, in the assay with UACC-62, with OVCAR-3, in the assay with SNB-75 and with HCC 2998 was > 100 µM (inactive) each time. Besides, the GI50 in the assay on DLD-1, in the assay on OVCAR-4 and in the assay on UACC-257 was > 100 µM (inactive) each time.
Turning to `O=[N+]([O-])c1cccc(-c2oc(/C=N/c3ccccc3)c([N+](=O)[O-])c2-c2cccc([N+](=O)[O-])c2)c1`, the GI50 with RXF 393, with MOLT-4, with SK-OV-3, in the assay with OVCAR-5, in the assay with ACHN and in the assay with HL-60 was > 100 µM (inactive) each time. For the same compound, the GI50 in the assay with HOP-62, in the assay on UACC-62, with OVCAR-3, in the assay with SNB-75, in the assay on CCRF-CEM and with HCC 2998 was > 100 µM (inactive) throughout. Also, the GI50 with DLD-1 and in the assay with UACC-257 was > 100 µM (inactive) throughout.
For `Cc1ccc([S+]([O-])c2ccccc2[N+](=O)[O-])cc1` (centres undefined), the GI50 with RXF 393 is > 100 µM (inactive); in the assay with MOLT-4 it was 41.3 µM (inactive); in the assay on HCT-15, 65 µM; in the assay on SK-OV-3, > 100 µM (inactive); in the assay with OVCAR-5, 72.1 µM (inactive); in the assay on ACHN, > 100 µM (inactive). In addition, the GI50 with SNB-19 is 58.3 µM (inactive); with HL-60 it was 29.1 µM (inactive); in the assay with HOP-62 it was > 100 µM (inactive); in the assay on UACC-62, > 100 µM (inactive); with OVCAR-3, 73.8 µM (inactive); in the assay with CCRF-CEM, 28.6 µM (inactive). The GI50 in the assay on HCC 2998 was 78.9 µM (inactive); in the assay on DLD-1, > 100 µM (inactive); in the assay with OVCAR-4, 39.1 µM (inactive); with UACC-257 it was > 100 µM (inactive).
In the case of `Cc1ccc(S(=O)(=O)N/N=C(\c2nc3ccc(Cl)cc3[nH]c2=O)C(O)c2ccco2)cc1` (centres undefined), the GI50 in the assay on RXF 393 was > 100 µM (inactive); in the assay on MOLT-4, 28.1 µM (inactive); with HCT-15, greater than 100 µM; in the assay with OVCAR-5 it was > 100 µM (inactive); in the assay with ACHN, > 100 µM (inactive); with SNB-19 it was > 100 µM (inactive). Moreover, the GI50 is 44 µM (inactive) with HL-60; > 100 µM (inactive) with UACC-62; > 100 µM (inactive) in the assay with OVCAR-3; > 100 µM (inactive) with SNB-75; 7.5 µM (inactive) in the assay with CCRF-CEM; > 100 µM (inactive) in the assay with HCC 2998. Also, the GI50 in the assay on DLD-1, with OVCAR-4 and with UACC-257 was > 100 µM (inactive) each time.
On to `C#CCn1c(=O)[nH]c(=O)c2cccnc21`, for which the GI50 was > 100 µM (inactive) with RXF 393; > 100 µM (inactive) with MOLT-4; greater than 100 µM with HCT-15; > 100 µM (inactive) with SK-OV-3; > 100 µM (inactive) with OVCAR-5; > 100 µM (inactive) with ACHN. For the same compound, the GI50 with SNB-19, in the assay with HL-60, in the assay on HOP-62, in the assay with SNB-75, with HCC 2998 and in the assay on DLD-1 was > 100 µM (inactive) in each case. In addition, the GI50 in the assay on OVCAR-4 and with UACC-257 was > 100 µM (inactive) each time.
Consider `OC1OC2COC(c3ccccc3)OC2C(O)C1O` (centres undefined), for which the GI50 is > 100 µM (inactive) with MOLT-4; greater than 100 µM in the assay with HCT-15; > 100 µM (inactive) in the assay on SK-OV-3; > 100 µM (inactive) in the assay on OVCAR-5; > 100 µM (inactive) in the assay with ACHN; > 100 µM (inactive) in the assay on SNB-19. Moreover, the GI50 in the assay on HL-60, in the assay with HOP-62, in the assay on UACC-62, in the assay with OVCAR-3, with CCRF-CEM and in the assay with HCC 2998 was > 100 µM (inactive) each time. The GI50 with DLD-1, with OVCAR-4 and with UACC-257 was > 100 µM (inactive) throughout.
In the case of `O=C(/C=C/c1ccccc1O)C(c1ccccc1)c1ccccc1`, the GI50 with RXF 393 is > 100 µM (inactive); in the assay on MOLT-4, > 100 µM (inactive); in the assay on HCT-15 it was greater than 100 µM; in the assay on SK-OV-3, > 100 µM (inactive); in the assay with OVCAR-5, > 100 µM (inactive); with ACHN, > 100 µM (inactive). Besides, the GI50 in the assay with SNB-19 was > 100 µM (inactive); with HOP-62, > 100 µM (inactive); with UACC-62, > 100 µM (inactive); in the assay on OVCAR-3, > 100 µM (inactive); in the assay with SNB-75 it was 20.1 µM (inactive); in the assay on CCRF-CEM, 60.8 µM (inactive). Moreover, the GI50 in the assay on HCC 2998 was > 100 µM (inactive); with DLD-1, > 100 µM (inactive); in the assay with OVCAR-4, 48.5 µM (inactive); in the assay with UACC-257 it was > 100 µM (inactive).
Regarding `CC#CCC1CCC(OCC)=CC1=O` (centres undefined), the GI50 in the assay on RXF 393 is > 100 µM (inactive); in the assay on MOLT-4 it was > 100 µM (inactive); in the assay on HCT-15, greater than 100 µM; in the assay on SK-OV-3 it was > 100 µM (inactive); in the assay on OVCAR-5 it was > 100 µM (inactive); with ACHN, > 100 µM (inactive). Moreover, the GI50 with SNB-19, with HL-60, in the assay with HOP-62, in the assay with UACC-62, in the assay with OVCAR-3 and with SNB-75 was > 100 µM (inactive) each time. Also, the GI50 in the assay on CCRF-CEM, with DLD-1, in the assay on OVCAR-4 and in the assay with UACC-257 was > 100 µM (inactive) each time.
Regarding `Cc1cn(C2CC(O)C(COC(=O)c3ccccc3)O2)c(=O)[nH]c1=O` (centres undefined), the GI50 in the assay with RXF 393 is > 100 µM (inactive); in the assay with MOLT-4, > 100 µM (inactive); in the assay on HCT-15, greater than 100 µM; in the assay on OVCAR-5, > 100 µM (inactive); in the assay with ACHN, > 100 µM (inactive); with SNB-19, > 100 µM (inactive). Further, the GI50 with HL-60, in the assay with HOP-62, in the assay with UACC-62, with OVCAR-3, in the assay with CCRF-CEM and in the assay on HCC 2998 was > 100 µM (inactive) throughout. Further, the GI50 with DLD-1, in the assay with OVCAR-4 and in the assay on UACC-257 was > 100 µM (inactive) in each case.
As for `CC(C)(C)C(=O)/C=C/c1ccc(Oc2ccccc2)cc1`, the GI50 was 27.4 µM (inactive) in the assay with RXF 393; 6.95 µM (inactive) in the assay with MOLT-4; greater than 10 µM in the assay on HCT-15; 37.9 µM (inactive) in the assay on SK-OV-3; 19.3 µM (inactive) with OVCAR-5; 17.5 µM (inactive) in the assay with ACHN. In addition, the GI50 in the assay with SNB-19 was 26.2 µM (inactive); with HOP-62, 27.4 µM (inactive); in the assay with SNB-75, 23.4 µM (inactive); in the assay on CCRF-CEM, 10.4 µM (inactive); with HCC 2998, 34.3 µM (inactive); with DLD-1, 15 µM (inactive). In addition, the GI50 with UACC-257 is 18.7 µM (inactive).
As to `CSc1cccc(-n2c3nc(=O)n(C)c(=O)c-3nc3ccccc32)c1`, the GI50 with MOLT-4 is 12 µM (inactive); with HCT-15, 5.02 µM; in the assay on SK-OV-3, 35.3 µM (inactive); with OVCAR-5, 18 µM (inactive); in the assay on ACHN it was 0.735 µM (active); with SNB-19, 12.9 µM (inactive). In addition, the GI50 in the assay on HL-60 is 3.34 µM (inactive); with HOP-62 it was 18.1 µM (inactive); in the assay with UACC-62 it was 1.95 µM (inactive); in the assay with OVCAR-3, 2.26 µM (inactive); in the assay with SNB-75, 14.5 µM (inactive); in the assay with CCRF-CEM, 11 µM (inactive). For the same compound, the GI50 in the assay on HCC 2998 was 4.03 µM (inactive); with DLD-1, 14 µM (inactive); in the assay on OVCAR-4, 9.53 µM (inactive); with UACC-257, 4.94 µM (inactive).
`O=c1ccc2cc(O)c(O)cc2o1` [ESCULETIN]: the GI50 in the assay on RXF 393 was > 100 µM (inactive); in the assay on MOLT-4, > 100 µM (inactive); in the assay on NCI/ADR-RES, > 100 µM (inactive); in the assay on MDA-MB-231 it was > 100 µM (inactive); in the assay on HCT-15, greater than 100 µM; with SK-OV-3, > 100 µM (inactive). For the same compound, the GI50 in the assay with OVCAR-5, in the assay on ACHN, in the assay on SNB-19, in the assay with HL-60, with HOP-62 and in the assay on UACC-62 was > 100 µM (inactive) in each case. The GI50 in the assay on OVCAR-3 is > 100 µM (inactive); in the assay with BT-549 it was > 100 µM (inactive); with SNB-75, > 100 µM (inactive); in the assay with CCRF-CEM, > 100 µM (inactive); in the assay with HCC 2998, > 100 µM (inactive); in the assay on OVCAR-4, 97.3 µM (inactive). In the assay with UACC-257, the GI50 is > 100 µM (inactive).
